Measurements as given in ChEMBL document CHEMBL1201862, “PubChem BioAssay data set” (2004).
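How tested: cells in 96-well plates exposed to compound for 48 hours at five concentrations. Abbreviation: GI50, concentration required for 50% inhibition of growth.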 Activity calls are given as the source filed them. Rule as the data show it: active = GI50 up to about 1.1 µM and inactive = higher.

Key:
Experiment in all cases: NCI-60 cell line screen, 48 h
TK-10 = system: TK-10
SF-268 = system: SF-268
SF-295 = system: SF-295
HCT-116 = system: HCT-116
M14 = system: M14
CAKI-1 = system: CAKI-1
UACC-257 = system: UACC-257
OVCAR-3 = system: OVCAR-3
LOX IMVI = system: LOX IMVI
K562 = system: K562
SK-OV-3 = system: SK-OV-3
HL-60 = system: HL-60
M19-MEL = system: M19-MEL
SK-MEL-2 = system: SK-MEL-2
NCI-H460 = system: NCI-H460
HOP-92 = system: HOP-92
RXF 393 = system: RXF 393
MCF7 = system: MCF7
T47D = system: T47D
DU-145 = system: DU-145

Compound | GI50 (TK-10) | GI50 (SF-268) | GI50 (SF-295) | GI50 (HCT-116) | GI50 (M14) | GI50 (CAKI-1) | GI50 (UACC-257) | GI50 (OVCAR-3) | GI50 (LOX IMVI) | GI50 (K562) | GI50 (SK-OV-3) | GI50 (HL-60) | GI50 (M19-MEL) | GI50 (SK-MEL-2) | GI50 (NCI-H460) | GI50 (HOP-92) | GI50 (RXF 393) | GI50 (MCF7) | GI50 (T47D) | GI50 (DU-145)
COC(=O)C1CC2C=CC=CC(=O)C2(C)C1 (stereo not drawn) | > 100 µM (inactive) | 37.3 µM (inactive) | 53.6 µM (inactive) | 28 µM (inactive) | 30.5 µM (inactive) | > 100 µM (inactive) | 38.7 µM (inactive) | > 100 µM (inactive) | 53.3 µM (inactive) | 30.7 µM (inactive) | > 100 µM (inactive) | 25.8 µM (inactive) | 55.5 µM (inactive) | 59.6 µM (inactive) | 41.8 µM (inactive) |  |  |  |  | 
N#C/C(N)=N/c1ccccc1 | > 100 µM (inactive) | > 100 µM (inactive) | > 100 µM (inactive) | > 100 µM (inactive) | > 100 µM (inactive) | > 100 µM (inactive) |  | > 100 µM (inactive) | 68.7 µM (inactive) | 71 µM (inactive) | > 100 µM (inactive) | > 100 µM (inactive) | > 100 µM (inactive) | > 100 µM (inactive) | > 100 µM (inactive) | > 100 µM (inactive) |  |  |  | 
CC(C)N(C(=O)C12C3C4C1C1C2C3C41C(O)C(C)(C)C)C(C)C (stereo not drawn) |  | > 50 µM (inactive) | > 50 µM (inactive) | > 50 µM (inactive) | > 50 µM (inactive) | > 50 µM (inactive) |  | > 50 µM (inactive) |  | > 50 µM (inactive) | > 50 µM (inactive) | > 50 µM (inactive) | > 50 µM (inactive) |  |  | 34.7 µM (inactive) |  |  |  | 
CC[N+](CC)(CC)Cc1cc2ccccc2n1C(=O)OC | > 100 µM (inactive) | > 100 µM (inactive) | > 100 µM (inactive) | > 100 µM (inactive) | > 100 µM (inactive) | > 100 µM (inactive) | > 100 µM (inactive) | 70.6 µM (inactive) |  | > 100 µM (inactive) |  | > 100 µM (inactive) | > 100 µM (inactive) | > 100 µM (inactive) | > 100 µM (inactive) | > 100 µM (inactive) |  |  |  | 
CCc1cccc(C)c1N1C(=O)C(=O)C(c2nc3ccccc3o2)C(=O)C1=O | > 100 µM (inactive) | > 100 µM (inactive) | > 100 µM (inactive) | > 100 µM (inactive) | > 100 µM (inactive) | > 100 µM (inactive) | > 100 µM (inactive) | > 100 µM (inactive) |  | > 100 µM (inactive) | > 100 µM (inactive) | > 100 µM (inactive) | > 100 µM (inactive) | > 100 µM (inactive) | > 100 µM (inactive) | > 100 µM (inactive) |  |  |  | 
O=C(/C=C\c1cccc2ccccc12)c1ccc(F)cc1 | 15.3 µM (inactive) | 15 µM (inactive) | 19.3 µM (inactive) | 13.9 µM (inactive) | 16.2 µM (inactive) | 17.3 µM (inactive) | 17.6 µM (inactive) | 17.1 µM (inactive) |  | 11.1 µM (inactive) | 23.5 µM (inactive) | 20.6 µM (inactive) | 19.6 µM (inactive) |  | 17.8 µM (inactive) | 11.9 µM (inactive) |  |  |  | 
COC(=O)[C@H](Cc1ccccc1)NC(=O)c1ccc(CNC(=O)/C=C/c2ccc(OCc3ccccc3)cc2)cc1 | 13.5 µM (inactive) | 10.8 µM (inactive) | 18.4 µM (inactive) | 25.2 µM (inactive) | 2.44 µM (inactive) | 12.1 µM (inactive) | 2.49 µM (inactive) | 10.7 µM (inactive) | 17.1 µM (inactive) | 12 µM (inactive) | 24.4 µM (inactive) | < 0.01 µM (active) |  | 2.55 µM (inactive) | 19.5 µM (inactive) | 2.45 µM (inactive) | 6.34 µM (inactive) | 29.4 µM (inactive) | 18.8 µM (inactive) | 12.4 µM (inactive)
